Drawing on patent US10759792B2, “CaMKII inhibitors and uses thereof” (The Johns Hopkins University, priority 2014, dated 2020), this text covers IC50 for 20 compounds.

Where only a bound is given, the exact number is not on record here.

This assay concerns the target CaMKIIδ (Homo sapiens (Human), UniProt Q13557). The assay can be described thus: In vitro CaMKIIδ activity assay (coupled assay measuring ADP released, peptide substrate AC3). Format: biochemical. The settings on record: full length C-terminal His/Gln tagged CaMKIIδ construct, 16 nM enzyme, 25° C., duplicate. The procedure: An exemplary procedure for the in vitro CaMKIIδ inhibition assay, which can be used to determine the inhibitory action of compounds of the invention toward CaMKII, follows. The procedure is taken from Chao L H, et al., (2010) Nat Struct Mol Biol. 17(3): 264-272, which is incorporated herein by reference in its entirety.
The inhibition of CaMKII activity was evaluated using a coupled assay measuring ADP released following ATP hydrolysis and phosphor-transfer to the peptide substrate AC3 (KKALHRQETVDAL; SEQ ID NO: 1) (1). A full length, C-terminal His/Gln tagged CaMKIIδ construct was used (sequence in Table 3 below).
Compounds were added in 5 uL volume to wells in UV transparent 96-well plates (½ area well size). The final compound concentrations tested ranged from 0.5 nM to 10 uM). Assays were performed in duplicate. CaMKIIδ is added to at a final concentration of 16 nM to a mixture containing 100 mM Tris (pH 7.5), 150 mM KCl, 0.27 mM EGTA, 1.3 mM PEP, 0.2 mg/ml AC3, 6.9% (v/v) PK/LDH mixture (Sigma P0294), 0.38 mM NADH and kept on ice. 72 uL of the enzyme mixture was added to the wells containing compounds and the plate was shaken briefly and kept on ice. The assay was initiated by adding 23 uL of a mixture containing 100 mM Tris (pH 7.5), 150 mM KCl, 1.7 mM CaCl2, 48 mM MgCl2, 0.35 mM ATP and 6.7 ug/mL calmodulin. The rate of ADP released was measured as the rate of absorbance decrease at […] at 25° C. and plotted against the log of the compound concentration (FIG. 1). IC50 data were fitted using GraphPad Prism software.
As for `COc1ccc2c(c1)[nH]c1nccc(-c3cccc(NCCN)c3)c12` [Compound I-12, N1-(3-(7-methoxy-9H-pyrido[2,3-b]indol-4-yl)phenyl)ethane-1,2-diamine], the 50% inhibitory concentration (IC50) was at most 0.05 µM. With `Clc1cnccc1-c1ccnc2[nH]c3ccccc3c12` [Compound 8r], the IC50 is at least 1 µM. The value for `c1cc(-c2ccnc3[nH]c4ccccc4c23)cc(-n2ccnc2)c1` [Compound I-2, 4-(3-(1H-imidazol-1-yl)phenyl)-9H-pyrido[2,3-b]indole] was at least 1 µM; that for `c1ccc2c(c1)[nH]c1nccc(-c3cnn(C4CCNCC4)c3)c12` [Compound 9m] was at least 1 µM. The same measure for `NCCOc1cccc(-c2ccnc3[nH]c4ccccc4c23)c1` [Compound I-9, 2-(3-(9H-pyrido[2,3-b]indol-4-yl)phenoxy)ethanamine]: at most 0.05 µM. The value for `NCCCOc1cccc(-c2ccnc3[nH]c4ccccc4c23)c1` [Compound I-10, 3-(3-(9H-pyrido[2,3-b]indol-4-yl)phenoxy)propan-1-amine] was at most 0.05 µM.

As for `c1ccc2c(c1)[nH]c1nccc(-n3cc(C4CCNCC4)nn3)c12` [Compound 9e], the half-maximal inhibitory concentration (IC50) is at least 1 µM. The value for `c1ccc2c(c1)[nH]c1nccc(-c3cnc(N4CCNCC4)s3)c12` [Compound 9k] was at least 1 µM.

With `NCCNc1cccc(-c2ccnc3[nH]c4ccccc4c23)c1` [Compound I-7, N1-(3-(9H-pyrido[2,3-b]indol-4-yl)phenyl)ethane-1,2-diamine], the half-inhibitory concentration (IC50) is at most 0.05 µM. Take `c1ccc2c(c1)[nH]c1nccc(-c3cncc(N4CCNCC4)c3)c12` [Compound 9a]: the IC50 lay within 0.25 to 1 µM. Regarding `NCCNc1cccc(-c2ccnc3[nH]c4ccc(Cl)cc4c23)c1` [Compound I-14, N1-(3-(6-chloro-9H-pyrido[2,3-b]indol-4-yl)phenyl)ethane-1,2-diamine], the half-inhibitory concentration (IC50) is at most 0.05 µM.

Regarding `C(=C/c1ccnc2[nH]c3ccccc3c12)/CN1CCNCC1` [Compound 9o], the IC50 is at least 1 µM.

As for `C(#Cc1ccnc2[nH]c3ccccc3c12)CN1CCNCC1` [Compound 9n], the IC50 fell in the range of 0.25 to 1 µM. With `NCc1cccc(-c2ccnc3[nH]c4ccccc4c23)c1` [Compound I-3], the IC50 was at least 1 µM. For `c1cc(-c2ccnc3[nH]c4ccccc4c23)nc(N2CCNCC2)c1` [Compound 9j], the IC50 was at most 0.05 µM. The same measure for `Cc1ccc2[nH]c3nccc(-c4cccc(NCCN)c4)c3c2c1` [Compound I-13, N1-(3-(6-methyl-9H-pyrido[2,3-b]indol-4-yl)phenyl)ethane-1,2-diamine]: at most 0.05 µM. The same measure for `Cc1nn(C2CCNCC2)cc1-c1ccnc2[nH]c3ccccc3c12` [Compound 9l]: at least 1 µM; for `c1ccc2c(c1)[nH]c1nccc(-c3cc[nH]c3)c12` [Compound 8q]: 0.25 to 1 µM. For `Clc1ccncc1-c1ccnc2[nH]c3ccccc3c12` [Compound 8p], the IC50 is at least 1 µM. The same measure for `C(=C\c1ccnc2[nH]c3ccccc3c12)/CN1CCNCC1` [Compound 9h]: at least 1 µM.

Broadly, the IC50 is the midpoint of a concentration-inhibition curve.
